Source: patent US20130184316A1, “METHODS FOR DIAGNOSING AND TREATING CONCUSSIVE DISORDERS” (priority 2010, published 2013)

How the values were obtained:
[1] = system: subject with PCS; experiment: California Verbal Learning Test II (CVLT); format: in vivo, human
Method: (§1) A single subject, prospective, double blind, placebo controlled trial of 4AP was then conducted in this individual. IRB approvals were obtained from all participating institutions and Subject gave written informed consent for all parts of the study. After a 4-week medication washout period, the Subject was randomly assigned a week's course of placebo, followed by a weeklong medication washout period, followed by another week on 4-AP (10 mg twice daily). Based on the medication half-life, a one week washout period was presumed to be sufficient. Subject and assessors were blinded to treatment allocation.
(§2) Measurements conducted at identical times at baseline and on each of the subsequent 3 weeks of the study included: • Balance and mobility assessed by Hi-Mat test (Arch. Phys. Med. Rehabil. 2006, 87(3), 437-442; hereby incorporated by reference in its entirety). • Subjective symptom assessment using the Rivermead Post-Concussion Questionnaire (Clin. Rehabil. 2005, 19(8), 878-887; hereby incorporated by reference in its entirety). • Neuropsychological assessment, consisting of the digit span and cancellation tests from the Wechsler Adult Intelligence Scale, 4th edition (Coalson, D. L., Engi-Raiford, S. Wechsler Adult Intelligence Scale, 4th Ed., in Technical and Interpretive Manual, 4th Ed., San Antonio: Pearson (2008); hereby incorporated by reference in its entirety), the California Verbal Learning Test II (CVLT) (Delis, D. C., Kramer, J. H., Kaplan, E., Ober, B. A. in CVLT-II Manual, San Antonio: The Psychological Corporation (2000); hereby incorporated by reference in its entirety), the Verbal Fluency Test (Connors Continuous Performance Test Computer II Program Version 5 Users Manual, Toronto: Multi-Health Systems, Inc. (2002); hereby incorporated by reference in its entirety), and the Connors Continuous Performance Test (J. Nervous Ment. Dis. 1985, 173(6), 353-357; hereby incorporated by reference in its entirety). • Videonystagmography (VNG) and rotary chair (RC) vestibular testing […]

[2] = system: subject with PCS; experiment: Neuro-optometric evaluation; format: in vivo, human; details: following treatment of 4AP
[3] = system: EA2 mutant Purkinje cells; details: literature (J. Neurosci. 2010), cited from earlier work
[4] = system: subject with PCS; experiment: Balance and mobility assessed by Hi-Mat test; format: in vivo, human
Method: as §1, §2

For Nc1ccncc1 [4-AP, 4-Amino pyridine], the “CVLT-II immediate, percentile” value ([1]; session 4 Active: blinded, one week on 4-AP 10 mg twice daily, baseline 27, placebo 21, washout 65) was 18 percentile, the “CVLT-II immediate, percentile” value ([1]; session 5 1st Open: open-label 4AP 10 mg twice daily, 5 weeks after formal study) was 69 percentile and the “CVLT-II immediate, percentile” value ([1]; session 6 2nd Open: open-label 4AP 10 mg twice daily, 9 weeks after formal study) was 93 percentile. For the same compound, the Overall neuro-optometric functioning [2] was “unexpectedly improved”, the “Purkinje cell excitability, spontaneous activity or firing rate” value ([3]; models of episodic ataxia) was “does not increase” and the “Functional consequence of treatment in EA2 mutant Purkinje cells” value ([3]; via blockage of potassium channels) was “restoration of the precision of pacemaking”. It also gave a HiMat score ([4]; session 4 Active: blinded, one week on 4-AP 10 mg twice daily, baseline 18, placebo 28, washout 28) of 31, a HiMat score ([4]; session 5 1st Open: open-label 4AP 10 mg twice daily, 5 weeks after conclusion of the formal study) of 32 and a HiMat score ([4]; session 6 2nd Open: open-label 4AP 10 mg twice daily, 9 weeks after conclusion of the formal study) of 50.
